In ChEMBL document CHEMBL5523720, “Identification of novel GSPT1 degraders by virtual screening and bioassay” (Eur J Med Chem, 2024):
Active and inactive are the calls of the source. The rule behind the calls is not given here.

Tests used:
[1] = system: OCI-AML2; experiment: Antiproliferative activity against human OCI-AML2 cells incubated for 48 hrs by MTS assay; assay type: functional, cell-based; conditions: OCI-AML2, 48 h
[2] = system: K562; experiment: Antiproliferative activity against human K562 cells incubated for 48 hrs by MTS assay; assay type: functional, cell-based; conditions: K562, 48 h
[3] = system: U-937; experiment: Antiproliferative activity against human U-937 cells incubated for 48 hrs by MTS assay; assay type: functional, cell-based; conditions: U-937, 48 h
[4] = system: U-266; experiment: Antiproliferative activity against human U-266 cells incubated for 48 hrs by MTS assay; assay type: functional, cell-based; conditions: U-266, 48 h
[5] = target: Eukaryotic peptide chain release factor GTP-binding subunit ERF3A (Homo sapiens) (UniProt P15170); experiment: Induction of GSPT1 degradation in human U-937 cells with CHX pretreatment by Western blotting analysis; assay type: cell-based; conditions: dose 20-40 µM
[6] = system: OCI-AML2; experiment: Induction of cell cycle arrest in human OCI-AML2 cells assessed as decrease in M phase cells at 5 to 20 uM incubated for 24 hrs by propidium iodide staining based flow cytometry analysis; assay type: functional; conditions: dose 5-20 µM
[7] = system: U-937; experiment: Antiproliferative activity against CRBN knockdown human U-937 cells incubated for 48 hrs by MTS assay; assay type: functional, cell-based
[8] = system: OCI-AML2; experiment: Downregulation of CK1alpha in human OCI-AML2 cells at high concentration incubated for 8 hrs by Western blotting analysis; assay type: functional, cell-based
[9] = system: U-937; experiment: Downregulation of CK1alpha in human U-937 cells at high concentration incubated for 8 hrs by Western blotting analysis; assay type: functional, cell-based
[10] = system: U-937; experiment: Induction of cell cycle arrest in human U-937 cells assessed as increase in G1 phase cells at 5 to 20 uM incubated for 24 hrs by propidium iodide staining based flow cytometry analysis; assay type: functional; conditions: dose 5-20 µM
[11] = target: Eukaryotic peptide chain release factor GTP-binding subunit ERF3A (Homo sapiens) (UniProt P15170); experiment: Induction of GSPT1 degradation in human U-937 cells at 20 to 40 uM pretreated with MLN4924 followed by compound addition and measured after 8 hrs by Western blotting analysis; assay type: cell-based; conditions: dose 20-40 µM
[12] = system: U-937; experiment: Upregulation of caspase 9 level in human U-937 cells at 5 to 20 uM incubated for 24 hrs by Western blotting assay; assay type: functional, cell-based; conditions: dose 5-20 µM
[13] = target: Protein cereblon (Homo sapiens) (UniProt Q96SW2); experiment: Binding affinity to recombinant CRBN (unknown origin) by SPR assay
[14] = target: Eukaryotic peptide chain release factor GTP-binding subunit ERF3A (Homo sapiens) (UniProt P15170); experiment: Induction of GSPT1 degradation in human U-937 cells at 20 to 40 uM pretreated with MG132 for 1 hr followed by compound addition and measured after 8 hrs by Western blotting analysis; assay type: cell-based; conditions: dose 20-40 µM
[15] = target: Eukaryotic peptide chain release factor GTP-binding subunit ERF3A (Homo sapiens) (UniProt P15170); experiment: Induction of GSPT1 degradation in human HEK293FT cells at 20 to 40 uM pretreated with MLN4924 for 1 hr followed by compound addition and measured after 8 hrs by Western blotting analysis; assay type: cell-based; conditions: dose 20-40 µM
[16] = system: OCI-AML2; experiment: Induction of cell cycle arrest in human OCI-AML2 cells assessed as increase in G1 phase cells at 5 to 20 uM incubated for 24 hrs by propidium iodide staining based flow cytometry analysis; assay type: functional; conditions: dose 5-20 µM
[17] = system: OCI-AML2; experiment: Downregulation of c-Myc level in human OCI-AML2 cells at 5 to 20 uM incubated for 24 hrs by Western blotting assay; assay type: functional, cell-based; conditions: dose 5-20 µM
[18] = system: OCI-AML2; experiment: Downregulation of GSPT1 in human OCI-AML2 cells at high concentration incubated for 8 hrs by Western blotting analysis; assay type: functional, cell-based
[19] = target: Eukaryotic peptide chain release factor GTP-binding subunit ERF3A (Homo sapiens) (UniProt P15170); experiment: Induction of GSPT1 degradation in human OCI-AML2 cells at 20 to 40 uM pretreated with MLN4924 followed by compound addition and measured after 8 hrs by Western blotting analysis; assay type: cell-based; conditions: dose 20-40 µM
[20] = system: U-937; experiment: Upregulation of p21 level in human U-937 cells at 5 to 20 uM incubated for 24 hrs by Western blotting assay; assay type: functional, cell-based; conditions: dose 5-20 µM
[21] = system: OCI-AML2; experiment: Induction of apoptosis in human OCI-AML2 cells assessed as increase in number of apoptotic cells at 5 to 20 uM incubated for 48 hrs by Annexin V-FITC/PI staining based flow cytometry analysis; assay type: functional, cell-based; conditions: dose 5-20 µM
[22] = system: OCI-AML2; experiment: Antiproliferative activity against GSPT1 knockout human OCI-AML2 cells incubated for 48 hrs by MTS assay; assay type: functional, cell-based
[23] = target: T1, Protein cereblon/Eukaryotic peptide chain release factor GTP-binding subunit ERF3A (Homo sapiens) (UniProt Q96SW2+P15170); experiment: Induction of CRBN to GSPT1 protein-protein interaction in human U-937 cells at 20 uM pretreated with MG132 for 1 hr followed by compound addition and measured after 8 hrs by immunoprecipitation assay; assay type: cell-based; conditions: filed as activator
[24] = system: U-937; experiment: Induction of apoptosis in human U-937 cells assessed as increase in number of apoptotic cells at 5 to 20 uM incubated for 48 hrs by Annexin V-FITC/PI staining based flow cytometry analysis; assay type: functional, cell-based; conditions: dose 5-20 µM
[25] = system: OCI-AML2; experiment: Downregulation of IKZF1 in human OCI-AML2 cells at high concentration incubated for 8 hrs by Western blotting analysis; assay type: functional, cell-based
[26] = system: OCI-AML2; experiment: Upregulation of caspase 9 level in human OCI-AML2 cells at 5 to 20 uM incubated for 24 hrs by Western blotting assay; assay type: functional, cell-based; conditions: dose 5-20 µM
[27] = system: U-937; experiment: Downregulation of GSPT1 in human U-937 cells at high concentration incubated for 8 hrs by Western blotting analysis; assay type: functional, cell-based
[28] = system: U-937; experiment: Upregulation of PARP cleavage in human U-937 cells at 5 to 20 uM incubated for 24 hrs by Western blotting assay; assay type: functional, cell-based; conditions: dose 5-20 µM
[29] = system: OCI-AML2; experiment: Upregulation of PARP cleavage in human OCI-AML2 cells at 5 to 20 uM incubated for 24 hrs by Western blotting assay; assay type: functional, cell-based; conditions: dose 5-20 µM
[30] = system: U-937; experiment: Downregulation of c-Myc level in human U-937 cells at 5 to 20 uM incubated for 24 hrs by Western blotting assay; assay type: functional, cell-based; conditions: dose 5-20 µM
[31] = system: OCI-AML2; experiment: Upregulation of p21 level in human OCI-AML2 cells at 5 to 20 uM incubated for 24 hrs by Western blotting assay; assay type: functional, cell-based; conditions: dose 5-20 µM
[32] = target: T1, Protein cereblon/Eukaryotic peptide chain release factor GTP-binding subunit ERF3A (Homo sapiens); experiment: Binding affinity to CRBN/GSPT1 in human U-937 cells assessed as increase in protein stabilization incubated for 6 hrs by CETSA; assay type: cell-based; conditions: filed as activator
[33] = system: U-937; experiment: Induction of cell cycle arrest in human U-937 cells assessed as decrease in M phase cells at 5 to 20 uM incubated for 24 hrs by propidium iodide staining based flow cytometry analysis; assay type: functional; conditions: dose 5-20 µM
[34] = system: U-937; experiment: Downregulation of IKZF1 in human U-937 cells at high concentration incubated for 8 hrs by Western blotting analysis; assay type: functional, cell-based

Eukaryotic peptide chain release factor GTP-binding subunit ERF3A (Homo sapiens), sequence (P15170 whole entry): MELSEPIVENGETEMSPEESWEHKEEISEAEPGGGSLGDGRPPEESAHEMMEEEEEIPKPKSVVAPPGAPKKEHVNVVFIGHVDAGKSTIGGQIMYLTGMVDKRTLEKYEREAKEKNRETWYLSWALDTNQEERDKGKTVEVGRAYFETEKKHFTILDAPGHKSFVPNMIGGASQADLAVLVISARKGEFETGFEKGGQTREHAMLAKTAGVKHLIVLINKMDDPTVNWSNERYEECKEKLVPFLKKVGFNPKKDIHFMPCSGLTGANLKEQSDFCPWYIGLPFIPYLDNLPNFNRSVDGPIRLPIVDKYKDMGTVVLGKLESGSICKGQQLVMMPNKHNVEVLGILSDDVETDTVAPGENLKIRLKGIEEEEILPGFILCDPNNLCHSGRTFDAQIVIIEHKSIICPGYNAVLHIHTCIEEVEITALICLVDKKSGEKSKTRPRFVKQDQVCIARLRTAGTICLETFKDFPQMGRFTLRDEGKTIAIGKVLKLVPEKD
T1 sequence (P15170 whole entry, looked up): as the sequence (P15170 whole entry) above
T1 sequence (Q96SW2 whole entry, looked up): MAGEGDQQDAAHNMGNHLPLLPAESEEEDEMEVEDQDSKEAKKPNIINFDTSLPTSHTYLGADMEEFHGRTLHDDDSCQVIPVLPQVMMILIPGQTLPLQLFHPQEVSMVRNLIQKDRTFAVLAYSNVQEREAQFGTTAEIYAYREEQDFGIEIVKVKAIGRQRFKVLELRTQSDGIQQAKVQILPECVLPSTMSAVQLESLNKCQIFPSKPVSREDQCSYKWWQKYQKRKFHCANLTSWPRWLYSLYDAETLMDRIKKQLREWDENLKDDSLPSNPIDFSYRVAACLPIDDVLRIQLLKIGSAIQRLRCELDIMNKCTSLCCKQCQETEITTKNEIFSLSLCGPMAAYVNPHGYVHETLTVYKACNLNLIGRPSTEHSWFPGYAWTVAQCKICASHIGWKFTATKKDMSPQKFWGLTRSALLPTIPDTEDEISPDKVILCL
Protein cereblon (Homo sapiens), sequence (Q96SW2 whole entry): as the sequence (Q96SW2 whole entry, looked up) above

Cc1nc2ccccc2cc1C(=O)N/N=C/c1ccccc1O
IC50 [1]: 8.98 µM
IC50 [2]: > 40 µM
IC50 [3]: 6.53 µM
IC50 [4]: 6.75 µM

Cc1ccc2nc(C)c(C(=O)N/N=C/c3cccc([N+](=O)[O-])c3)cc2c1
IC50 [1]: > 40 µM
IC50 [2]: > 40 µM
IC50 [3]: > 40 µM
IC50 [4]: > 40 µM

Cc1nc2ccccc2cc1C(=O)N/N=C/c1cccc([N+](=O)[O-])c1
IC50 [1]: > 40 µM
IC50 [2]: > 40 µM
IC50 [3]: > 40 µM
IC50 [4]: > 40 µM

Cc1ccc2nc(C)c(C(=O)N/N=C/c3cccc(Cl)c3)cc2c1
IC50 [1]: > 40 µM
IC50 [2]: > 40 µM
IC50 [3]: > 40 µM
IC50 [4]: > 40 µM

Cc1ccc2nc(C)c(C(=O)N/N=C/c3cccnc3)cc2c1
IC50 [1]: > 40 µM
IC50 [2]: > 40 µM
IC50 [3]: > 40 µM
IC50 [4]: > 40 µM

Cc1nc2ccccc2cc1C(=O)N/N=C/c1cccc(Cl)c1
IC50 [1]: > 40 µM
IC50 [2]: > 40 µM
IC50 [3]: > 40 µM
IC50 [4]: > 40 µM

Cc1nc2c(C)cccc2cc1C(=O)N/N=C/c1ccccc1
IC50 [1]: 11 µM
IC50 [2]: 37.6 µM
IC50 [3]: 16.4 µM
IC50 [4]: 10.1 µM

Cc1nc2c(C)cccc2cc1C(=O)N/N=C/c1ccccc1O
Activity [5]: Dose-Dependent Effect
Activity [6]: Active
Activity [7]: inactive
Activity [8]: Active
Activity [9]: Active
Activity [10]: Active
Activity [11]: inactive
Activity [12]: Active
Activity [13]: Active
IC50 [1]: 2.64 µM
Activity [14]: inactive
Activity [15]: inactive
Activity [16]: Active
IC50 [2]: 16.7 µM
Activity [17]: Active
Activity [18]: Active
Activity [19]: inactive
Activity [20]: Active
Activity [21]: Active
Activity [22]: inactive
Activity [23]: Active
Activity [24]: Active
Activity [25]: Active
Activity [26]: Active
Activity [27]: Active
Activity [28]: Active
Activity [29]: Active
Activity [30]: Active
IC50 [3]: 4.49 µM
Activity [31]: Active
Activity [32]: Active
Activity [33]: Active
IC50 [4]: 3.8 µM
Activity [34]: Active

CC(C)=NNC(=O)c1cc2cccc(C)c2nc1C
IC50 [1]: > 40 µM
IC50 [2]: > 40 µM
IC50 [3]: > 40 µM
IC50 [4]: > 40 µM
